Assay results from ChEMBL document CHEMBL4340536, “Design, synthesis and structure-activity relationship study of aminopyridine derivatives as novel inhibitors of Janus kinase 2” (Bioorg Med Chem Lett, 2019).
Values belong to the compound of their own block, whether it stands above or below them. Active and inactive are the calls of the source. The calls are words filed in the database; no cut-off is given here.

Tests used:
[1] = molecular target: T1, Tyrosine-protein kinase JAK2 (Homo sapiens, UniProt O60674); assay: Inhibition of human recombinant N-terminal hexahistidine tagged JAK2 JH1 catalytic domain (835 to 1132 residues) expressed in baculovirus infected Sf9 cells using Tyr6 peptide as substrate incubated for 30 secs under shaking condition measured after 1 hr by Z'-LYTE assay
HEL = assay: Antiproliferative activity against HEL cells harboring JAK2 V617F mutant measured after 3 days by CCK8 assay; type: functional, cell-based; conditions: Homo sapiens, 72 h
[2] = molecular target: Tyrosine-protein kinase JAK1 (Homo sapiens, UniProt P23458); assay: Inhibition of human recombinant N-terminal hexahistidine tagged JAK1 JH1 catalytic domain (854 to 1154 residues) expressed in baculovirus infected Sf9 cells using Tyr6 peptide as substrate incubated for 30 secs under shaking condition measured after 1 hr by Z'-LYTE assay
[3] = molecular target: T2, Tyrosine-protein kinase JAK3 (Homo sapiens, UniProt P52333); assay: Inhibition of human recombinant C-terminal hexahistidine tagged JAK3 JH1 catalytic domain (811 to 1124 residues) expressed in baculovirus infected Sf9 cells using Tyr6 peptide as substrate incubated for 30 secs under shaking condition measured after 1 hr by Z'-LYTE assay
T2 sequence (P52333 whole entry): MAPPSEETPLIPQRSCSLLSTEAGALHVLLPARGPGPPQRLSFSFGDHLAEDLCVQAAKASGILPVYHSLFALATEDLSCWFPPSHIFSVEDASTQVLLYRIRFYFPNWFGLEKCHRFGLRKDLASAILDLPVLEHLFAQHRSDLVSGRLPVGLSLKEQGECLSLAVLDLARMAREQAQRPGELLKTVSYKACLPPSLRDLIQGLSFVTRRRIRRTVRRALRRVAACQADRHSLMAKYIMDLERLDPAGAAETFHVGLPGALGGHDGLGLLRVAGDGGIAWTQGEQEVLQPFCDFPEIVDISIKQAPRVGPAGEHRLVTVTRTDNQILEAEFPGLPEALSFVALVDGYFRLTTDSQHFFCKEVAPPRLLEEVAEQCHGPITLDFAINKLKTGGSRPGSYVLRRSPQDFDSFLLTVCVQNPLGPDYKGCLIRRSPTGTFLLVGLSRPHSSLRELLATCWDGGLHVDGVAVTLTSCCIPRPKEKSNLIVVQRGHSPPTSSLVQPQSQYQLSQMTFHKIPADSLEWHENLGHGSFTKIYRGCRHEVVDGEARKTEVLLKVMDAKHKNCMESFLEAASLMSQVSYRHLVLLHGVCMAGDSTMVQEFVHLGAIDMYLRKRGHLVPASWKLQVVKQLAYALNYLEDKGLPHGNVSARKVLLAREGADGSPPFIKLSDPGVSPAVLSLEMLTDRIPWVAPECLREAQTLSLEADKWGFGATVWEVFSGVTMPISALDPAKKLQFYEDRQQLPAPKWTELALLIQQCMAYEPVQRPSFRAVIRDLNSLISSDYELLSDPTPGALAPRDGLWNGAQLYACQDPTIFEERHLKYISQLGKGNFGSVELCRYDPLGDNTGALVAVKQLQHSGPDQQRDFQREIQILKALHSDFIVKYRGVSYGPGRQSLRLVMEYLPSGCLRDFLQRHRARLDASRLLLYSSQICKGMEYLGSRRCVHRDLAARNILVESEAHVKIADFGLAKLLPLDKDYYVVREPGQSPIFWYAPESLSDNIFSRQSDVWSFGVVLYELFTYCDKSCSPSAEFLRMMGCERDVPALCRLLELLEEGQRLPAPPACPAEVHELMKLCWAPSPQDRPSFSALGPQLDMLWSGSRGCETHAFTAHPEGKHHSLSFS

[4] = molecular target: Non-receptor tyrosine-protein kinase TYK2 (Homo sapiens, UniProt P29597); assay: Inhibition of TYK2 (unknown origin) using peptide as substrate preincubated for 10 mins followed by substrate addition by mobility shift assay
Homo sapiens [5] = species on record: Homo sapiens; assay: Selectivity ratio of IC50 for human recombinant N-terminal hexahistidine tagged JAK1 JH1 catalytic domain (854 to 1154 residues) expressed in baculovirus infected Sf9 cells to IC50 for human recombinant N-terminal hexahistidine tagged JAK2 JH1 catalytic domain (835 to 1132 residues) expressed in baculovirus infected Sf9 cells
Homo sapiens [6] = species on record: Homo sapiens; assay: Selectivity ratio of IC50 for human recombinant C-terminal hexahistidine tagged JAK3 JH1 catalytic domain (811 to 1124 residues) expressed in baculovirus infected Sf9 cells to IC50 for human recombinant N-terminal hexahistidine tagged JAK2 JH1 catalytic domain (835 to 1132 residues) expressed in baculovirus infected Sf9 cells
Homo sapiens [7] = species on record: Homo sapiens; assay: Selectivity ratio of IC50 for TYK2 (unknown origin) to IC50 for human recombinant N-terminal hexahistidine tagged JAK2 JH1 catalytic domain (835 to 1132 residues) expressed in baculovirus infected Sf9 cells
[8] = molecular target: T1, Tyrosine-protein kinase JAK2; assay: Inhibition of human recombinant N-terminal hexahistidine tagged JAK2 JH1 catalytic domain (835 to 1132 residues) expressed in baculovirus infected Sf9 cells at 1 uM using Tyr6 peptide as substrate incubated for 30 secs under shaking condition measured after 1 hr by Z'-LYTE assay relative to control
[9] = Toxicity in incomplete Freund's adjuvant-induced Wistar rat arthritic model assessed as effect on body weight growth at 10 to 50 mg/kg, po administered daily for 28 days starting from 8 days post-immunization measured every 3 days during compound dosing; type: organism-based; conditions: in vivo
Rattus norvegicus [10] = assay: Antiarthritic activity in incomplete Freund's adjuvant-induced Wistar rat arthritic model assessed as decrease in arthritis swelling score at 50 mg/kg, po administered daily for 28 days starting from 8 days post-immunization measured daily during compound dosing; type: functional, organism-based
Rattus norvegicus [11] = assay: Antiarthritic activity in po dosed incomplete Freund's adjuvant-induced Wistar rat arthritic model assessed as reduction in foot swelling administered daily for 28 days starting from 8 days post-immunization measured daily during compound dosing; type: functional, organism-based
Rattus norvegicus [12] = assay: Antiarthritic activity in incomplete Freund's adjuvant-induced Wistar rat arthritic model assessed as decrease in arthritic incidences at 10 to 50 mg/kg, po administered daily for 28 days starting from 8 days post-immunization measured daily during compound dosing; type: functional, organism-based
[13] = molecular target: T1, Tyrosine-protein kinase JAK2; conditions: Sf9
[14] = Toxicity in incomplete Freund's adjuvant-induced Wistar rat arthritic model assessed as effect on body weight growth at 0.3 mg/kg, po administered daily for 28 days starting from 8 days post-immunization measured every 3 days during compound dosing; type: organism-based; conditions: in vivo
Rattus norvegicus [15] = assay: Antiarthritic activity in incomplete Freund's adjuvant-induced arthritis model Wistar rat at 0.3 mg/kg, po administered daily for 28 days starting from 8 days post-immunization measured daily during compound; type: functional, organism-based

Non-receptor tyrosine-protein kinase TYK2, sequence (P29597 whole entry, the tested form may be a part): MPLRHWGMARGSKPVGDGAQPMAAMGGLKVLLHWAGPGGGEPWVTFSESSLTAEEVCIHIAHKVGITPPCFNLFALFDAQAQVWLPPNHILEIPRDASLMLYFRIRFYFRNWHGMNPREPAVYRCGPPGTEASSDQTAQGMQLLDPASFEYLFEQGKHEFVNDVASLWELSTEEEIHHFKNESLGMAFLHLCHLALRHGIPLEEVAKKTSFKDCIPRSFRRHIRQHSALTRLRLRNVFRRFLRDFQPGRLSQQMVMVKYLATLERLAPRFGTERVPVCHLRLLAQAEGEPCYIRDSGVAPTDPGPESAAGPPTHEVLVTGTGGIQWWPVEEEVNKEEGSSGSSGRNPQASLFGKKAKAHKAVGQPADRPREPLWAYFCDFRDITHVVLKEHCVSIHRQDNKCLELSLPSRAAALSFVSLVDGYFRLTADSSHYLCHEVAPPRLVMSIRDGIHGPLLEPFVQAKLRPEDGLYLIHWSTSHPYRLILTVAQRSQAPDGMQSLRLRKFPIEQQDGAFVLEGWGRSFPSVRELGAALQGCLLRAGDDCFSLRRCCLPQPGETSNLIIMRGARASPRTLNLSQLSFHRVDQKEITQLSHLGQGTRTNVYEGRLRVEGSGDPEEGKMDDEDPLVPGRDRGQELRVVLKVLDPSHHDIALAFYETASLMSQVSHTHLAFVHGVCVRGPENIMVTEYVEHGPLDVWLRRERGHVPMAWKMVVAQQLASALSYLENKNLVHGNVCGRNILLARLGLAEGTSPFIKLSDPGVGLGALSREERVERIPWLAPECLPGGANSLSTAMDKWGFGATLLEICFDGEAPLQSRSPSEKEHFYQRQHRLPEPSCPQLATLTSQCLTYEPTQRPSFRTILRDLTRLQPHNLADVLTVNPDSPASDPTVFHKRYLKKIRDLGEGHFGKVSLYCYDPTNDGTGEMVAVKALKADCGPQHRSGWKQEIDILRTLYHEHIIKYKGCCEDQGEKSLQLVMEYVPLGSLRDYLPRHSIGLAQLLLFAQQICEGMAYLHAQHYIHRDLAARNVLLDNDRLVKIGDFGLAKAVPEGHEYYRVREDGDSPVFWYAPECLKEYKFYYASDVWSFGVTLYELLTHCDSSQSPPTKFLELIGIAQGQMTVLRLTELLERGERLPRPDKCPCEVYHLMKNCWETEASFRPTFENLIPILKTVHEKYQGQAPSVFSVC
Tyrosine-protein kinase JAK1, sequence (P23458 whole entry, the tested form may be a part): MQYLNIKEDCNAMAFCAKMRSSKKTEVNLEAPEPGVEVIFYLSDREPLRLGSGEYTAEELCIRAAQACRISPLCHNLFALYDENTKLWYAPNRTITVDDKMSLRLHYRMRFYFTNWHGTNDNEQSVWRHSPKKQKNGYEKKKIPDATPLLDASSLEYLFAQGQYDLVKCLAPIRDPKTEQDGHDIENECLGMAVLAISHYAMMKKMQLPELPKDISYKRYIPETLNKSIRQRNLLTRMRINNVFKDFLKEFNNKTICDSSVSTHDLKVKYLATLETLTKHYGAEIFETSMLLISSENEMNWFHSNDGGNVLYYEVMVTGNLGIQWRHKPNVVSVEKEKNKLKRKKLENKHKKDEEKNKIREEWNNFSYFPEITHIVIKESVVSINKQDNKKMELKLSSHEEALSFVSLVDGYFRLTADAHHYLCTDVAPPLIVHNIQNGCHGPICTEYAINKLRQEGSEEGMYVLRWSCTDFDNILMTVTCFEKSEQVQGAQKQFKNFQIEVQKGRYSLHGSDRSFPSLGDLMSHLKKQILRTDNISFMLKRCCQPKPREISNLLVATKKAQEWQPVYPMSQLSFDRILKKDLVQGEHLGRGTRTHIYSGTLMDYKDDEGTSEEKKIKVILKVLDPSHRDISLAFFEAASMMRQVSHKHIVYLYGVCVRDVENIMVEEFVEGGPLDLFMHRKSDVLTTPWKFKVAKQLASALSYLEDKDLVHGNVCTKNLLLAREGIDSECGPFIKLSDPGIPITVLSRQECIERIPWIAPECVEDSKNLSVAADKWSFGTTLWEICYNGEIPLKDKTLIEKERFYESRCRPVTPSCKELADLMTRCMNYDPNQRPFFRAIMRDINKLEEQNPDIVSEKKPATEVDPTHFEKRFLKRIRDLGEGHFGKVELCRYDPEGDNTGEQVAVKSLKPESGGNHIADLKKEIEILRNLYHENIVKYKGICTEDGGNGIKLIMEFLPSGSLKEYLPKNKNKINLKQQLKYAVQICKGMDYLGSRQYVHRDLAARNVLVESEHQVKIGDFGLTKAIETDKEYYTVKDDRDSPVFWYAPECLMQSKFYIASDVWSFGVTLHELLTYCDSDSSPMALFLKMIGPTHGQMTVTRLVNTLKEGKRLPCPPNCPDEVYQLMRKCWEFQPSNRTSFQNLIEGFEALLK
T1 sequence (O60674 whole entry, the tested form may be a part): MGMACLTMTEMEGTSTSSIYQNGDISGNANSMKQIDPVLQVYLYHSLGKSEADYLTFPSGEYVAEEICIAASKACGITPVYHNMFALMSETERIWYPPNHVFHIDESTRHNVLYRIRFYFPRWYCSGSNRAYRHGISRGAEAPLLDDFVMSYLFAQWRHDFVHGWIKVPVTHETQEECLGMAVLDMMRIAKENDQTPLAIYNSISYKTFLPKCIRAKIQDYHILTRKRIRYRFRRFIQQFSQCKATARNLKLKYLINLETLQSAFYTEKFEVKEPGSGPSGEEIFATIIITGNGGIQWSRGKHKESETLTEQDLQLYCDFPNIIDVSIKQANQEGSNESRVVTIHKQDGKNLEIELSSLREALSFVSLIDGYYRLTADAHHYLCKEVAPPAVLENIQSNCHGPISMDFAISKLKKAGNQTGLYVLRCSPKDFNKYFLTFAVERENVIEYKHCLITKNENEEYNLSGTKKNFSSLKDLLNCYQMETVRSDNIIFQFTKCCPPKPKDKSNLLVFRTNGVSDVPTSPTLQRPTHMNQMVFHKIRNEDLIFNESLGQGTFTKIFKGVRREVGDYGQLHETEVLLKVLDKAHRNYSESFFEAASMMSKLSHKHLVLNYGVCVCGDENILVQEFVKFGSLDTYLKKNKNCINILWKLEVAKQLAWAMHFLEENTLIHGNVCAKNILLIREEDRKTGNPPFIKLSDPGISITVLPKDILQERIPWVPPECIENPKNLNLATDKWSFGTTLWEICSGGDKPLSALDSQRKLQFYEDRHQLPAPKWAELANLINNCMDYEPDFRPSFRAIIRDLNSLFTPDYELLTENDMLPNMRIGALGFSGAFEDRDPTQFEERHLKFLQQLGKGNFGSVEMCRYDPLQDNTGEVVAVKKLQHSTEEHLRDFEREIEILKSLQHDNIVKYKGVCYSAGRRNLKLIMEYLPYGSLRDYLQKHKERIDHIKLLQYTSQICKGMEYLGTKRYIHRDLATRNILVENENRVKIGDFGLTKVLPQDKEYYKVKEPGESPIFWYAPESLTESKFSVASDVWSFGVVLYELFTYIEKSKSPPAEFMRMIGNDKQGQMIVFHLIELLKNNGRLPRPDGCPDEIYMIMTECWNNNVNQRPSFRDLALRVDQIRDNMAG

SMILES: CC(Oc1cc(-c2cnn(C3CCNCC3)c2)cnc1N)c1c(Cl)ccc(F)c1Cl (stereo not drawn)
IC50 (HEL): 6580 nM

SMILES: N#CC[C@H](C1CCCC1)n1cc(-c2ncnc3[nH]ccc23)cn1 [RUXOLITINIB]
IC50 (HEL): 7640 nM

SMILES: CC(Oc1cc(-c2cccc(C3CCNCC3)c2)cnc1N)c1cc(F)ccc1Cl (stereo not drawn)
IC50 (HEL): 6200 nM

SMILES: CC(Oc1cc(-c2ccccc2)cnc1N)c1cc(F)ccc1Cl (stereo not drawn)
IC50 (HEL): > 100000 nM

SMILES: CC(Oc1cc(-c2cnn(C3CCNCC3)c2)cnc1N)C1CCCCC1 (stereo not drawn)
IC50 (HEL): 20900 nM

SMILES: CCC(Oc1cc(-c2cnn(C3CCNCC3)c2)cnc1N)c1c(Cl)ccc(F)c1Cl (stereo not drawn)
IC50 (HEL): 9980 nM

SMILES: CC(Oc1cc(-c2cnn(C3CCNCC3)c2)cnc1N)c1c(Cl)cccc1Cl (stereo not drawn)
IC50 (HEL): 28400 nM

SMILES: CC(Oc1cc(-c2ccc(C3CCNCC3)cc2)cnc1N)c1cc(F)ccc1Cl (stereo not drawn)
IC50 (HEL): 16000 nM

SMILES: COc1ccc(F)c(Cl)c1C(C)Oc1cc(-c2cnn(C3CCNCC3)c2)cnc1N (stereo not drawn)
IC50 [2]: 1220 nM
IC50 [1]: 26 nM
IC50 [3]: 1760 nM
IC50 [4]: 774 nM
Ratio IC50 (Homo sapiens [5]): 46
Ratio IC50 (Homo sapiens [6]): 66
Ratio IC50 (Homo sapiens [7]): 30
IC50 (HEL): 13600 nM

SMILES: CC(Oc1cc(-c2ccc(N3CCNCC3)cc2)cnc1N)c1cc(F)ccc1Cl (stereo not drawn)
IC50 (HEL): 19700 nM

SMILES: CN(Cc1cnc2nc(N)nc(N)c2n1)c1ccc(C(=O)N[C@@H](CCC(=O)O)C(=O)O)cc1 [METHOTREXATE]
Activity [14]: Toxic
Activity (Rattus norvegicus [15]): Active

Second part, led by results:

IC50 [1]: 119 nM
SMILES: CC(Oc1cc(-c2cncc(N3CCNCC3)c2)cnc1N)c1c(Cl)ccc(F)c1Cl (stereo not drawn)
IC50 (HEL): 7450 nM

IC50 [1]: 215 nM
SMILES: CC(Oc1cc(-c2cnn(C3CCNCC3)c2)cnc1N)c1ccccc1 (stereo not drawn)
IC50 (HEL): 29600 nM

IC50 [2]: 1800 nM
IC50 [3]: 1580 nM
IC50 [4]: 794 nM
SMILES: COc1ccc(F)cc1C(C)Oc1cc(-c2cnn(C3CCNCC3)c2)cnc1N (stereo not drawn)
Ratio IC50 (Homo sapiens [5]): 598
Ratio IC50 (Homo sapiens [6]): 528
Ratio IC50 (Homo sapiens [7]): 264
IC50 (HEL): 4190 nM

IC50 [1]: 126 nM
SMILES: CC(Nc1cc(-c2cnn(C3CCNCC3)c2)cnc1N)c1c(Cl)ccc(F)c1Cl (stereo not drawn)
IC50 (HEL): 10800 nM

inhibition [8]: 7.15%
SMILES: CC(Oc1cc(-c2ccccc2)cnc1N)c1c(Cl)ccc(F)c1Cl (stereo not drawn)
IC50 (HEL): > 100000 nM

IC50 [2]: 660 nM
IC50 [1]: 6 nM
IC50 [3]: 513 nM
IC50 [4]: 1300 nM
SMILES: CC(Oc1cc(-c2cnn(C3CCNCC3)c2)cnc1N)c1cc(F)ccc1Cl (stereo not drawn)
Ratio IC50 (Homo sapiens [5]): 110
Ratio IC50 (Homo sapiens [6]): 86
Ratio IC50 (Homo sapiens [7]): 216
IC50 (HEL): 15000 nM
Activity [9]: Non-Toxic
Activity (Rattus norvegicus [10]): Active
Activity (Rattus norvegicus [11]): Dose-dependent effect
Activity (Rattus norvegicus [12]): Active

ΔTm [13]: 7.88 °C
SMILES: C[C@@H](Oc1cc(-c2cnn(C3CCNCC3)c2)cnc1N)c1c(Cl)ccc(F)c1Cl [CRIZOTINIB]
IC50 (HEL): 4720 nM

IC50 [2]: 120 nM
IC50 [3]: 2790 nM
IC50 [4]: 2530 nM
SMILES: CC(Oc1cc(-c2cccc(N3CCNCC3)c2)cnc1N)c1cc(F)ccc1Cl (stereo not drawn)
Ratio IC50 (Homo sapiens [5]): 4
Ratio IC50 (Homo sapiens [6]): 107
Ratio IC50 (Homo sapiens [7]): 94
IC50 (HEL): 7200 nM

IC50 [1]: 65 nM
SMILES: CC(Oc1cc(-c2cnn(C3CCOCC3)c2)cnc1N)c1c(Cl)ccc(F)c1Cl (stereo not drawn)
IC50 (HEL): > 100000 nM

IC50 [1]: 3050 nM
SMILES: CC(Oc1cc(-c2cccnc2)cnc1N)c1c(Cl)ccc(F)c1Cl (stereo not drawn)
IC50 (HEL): 20100 nM

IC50 [1]: 804 nM
SMILES: CC(Oc1cc(-c2ccc(N3CCNCC3)nc2)cnc1N)c1c(Cl)ccc(F)c1Cl (stereo not drawn)
IC50 (HEL): 7760 nM

IC50 [2]: 82 nM
IC50 [3]: 965 nM
IC50 [4]: 1450 nM
SMILES: CC(Oc1cc(-c2cn[nH]c2)cnc1N)c1cc(F)ccc1Cl (stereo not drawn)
Ratio IC50 (Homo sapiens [5]): 5
Ratio IC50 (Homo sapiens [6]): 60
Ratio IC50 (Homo sapiens [7]): 91
IC50 (HEL): 4850 nM
